According to PubChem BioAssay (NCI):
Where “and” joins values, the source holds several entries; their conditions need not be identical. Identical values can stand only once.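 Dose response: 5 concentrations. Exposure: 48 h. Format: 96-well plates. Endpoint: linear interpolation; highest concentration if not reached. GI50 is the concentration that inhibits growth by half. Definition used: TGI = concentration required for complete inhibition of growth.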

Assays:
Experiment in all cases: NCI anticancer screen, dose series, 48 h
[1] = tested on: M14 melanoma
[2] = tested on: A549 NSCLC
[3] = tested on: CAKI-1 renal
[4] = tested on: DU-145 prostate
[5] = tested on: SK-MEL-2 melanoma
[6] = tested on: U251 CNS
[7] = tested on: NCI/ADR-RES ovarian
[8] = tested on: NCI-H23 lung
[9] = tested on: SW-620 colon
[10] = tested on: OVCAR-8 ovarian
[11] = tested on: SF-539 CNS
[12] = tested on: HOP-92 NSCLC
[13] = tested on: TK-10 renal
[14] = tested on: SK-MEL-28 melanoma
[15] = tested on: UACC-257 melanoma
[16] = tested on: K-562 leukemia
[17] = tested on: HCT-116 colon
[18] = tested on: KM12 colon
[19] = tested on: MDA-MB-435
[20] = tested on: COLO 205 colon
[21] = tested on: HCC-2998 colon
[22] = tested on: IGROV1 ovarian
[23] = tested on: HOP-62 NSCLC
[24] = tested on: ACHN renal
[25] = tested on: 786-0 renal
[26] = tested on: NCI-H226 lung
[27] = tested on: MALME-3M melanoma
[28] = tested on: SNB-19 CNS
[29] = tested on: OVCAR-4 ovarian
[30] = tested on: PC-3 prostate
[31] = tested on: CCRF-CEM leukemia
[32] = tested on: HL-60(TB) leukemia
[33] = tested on: HCT-15 colon
[34] = tested on: NCI-H460 lung
[35] = tested on: SF-295 CNS
[36] = tested on: OVCAR-5 ovarian
[37] = tested on: T-47D breast
[38] = tested on: HT29 colon
[39] = tested on: MCF7 breast
[40] = tested on: SF-268 CNS
[41] = tested on: SN12C renal
[42] = tested on: MOLT-4 leukemia
[43] = tested on: A498 renal
[44] = tested on: LOX IMVI melanoma
[45] = tested on: NCI-H522 lung
[46] = tested on: UO-31 renal
[47] = tested on: OVCAR-3 ovarian
[48] = tested on: RPMI-8226 leukemia
[49] = tested on: SK-MEL-5 melanoma
[50] = tested on: UACC-62 melanoma
[51] = tested on: SNB-75 CNS
[52] = tested on: BT-549 breast
[53] = tested on: HS 578T breast
[54] = tested on: RXF 393 renal
[55] = tested on: SK-OV-3 ovarian
[56] = tested on: MDA-MB-231 breast
[57] = tested on: EKVX NSCLC
[58] = tested on: SR leukemia

O=C(Nc1cn[nH]c1-c1nc2ccc(CN3CCOCC3)cc2[nH]1)NC1CC1
GI50 [1]: 1.52 µM and 4.84 µM | TGI [1]: 4.34 µM and > 10 µM | TGI [2]: 9.76 µM and > 10 µM | TGI [3]: 15.2 µM and > 10 µM | GI50 [4]: 2.6 µM and > 10 µM | TGI [4]: 14.7 µM and > 10 µM | GI50 [5]: 1.35 µM and > 10 µM | TGI [5]: 3.94 µM and > 10 µM | GI50 [6]: 0.274 µM and 1.3 µM | TGI [6]: 11.2 µM and > 10 µM | GI50 [7]: 12.1 µM and > 10 µM | TGI [7]: > 86.7 µM | GI50 [8]: 1.45 µM and 7.06 µM | TGI [8]: 5.16 µM and > 10 µM | GI50 [9]: 0.573 µM and 1.32 µM | TGI [9]: 11.5 µM and > 10 µM | GI50 [10]: 1.74 µM and 5.19 µM | TGI [10]: 9.63 µM and > 10 µM | GI50 [11]: 0.262 µM and 0.688 µM | TGI [11]: 1.35 µM and 3.7 µM | GI50 [12]: 0.365 µM and 1.06 µM | TGI [12]: 2.6 µM and 8.8 µM | GI50 [13]: 1.24 µM and 5.07 µM | TGI [13]: 6 µM and > 10 µM | GI50 [14]: 1.79 µM and > 10 µM | TGI [14]: 5.7 µM and > 10 µM | GI50 [15]: 1.72 µM and > 10 µM | TGI [15]: 7.76 µM and > 10 µM | GI50 [16]: 0.543 µM and 1.59 µM | TGI [16]: > 100 µM | GI50 [17]: 0.208 µM and 0.473 µM | TGI [17]: 10.8 µM and > 10 µM | GI50 [18]: 0.634 µM and 1.72 µM | TGI [18]: 4.06 µM and > 10 µM | GI50 [19]: 1.43 µM and 6.77 µM | TGI [19]: 5 µM and > 10 µM | GI50 [20]: 0.0376 µM and 0.0752 µM | TGI [20]: 1.75 µM and 3.81 µM | GI50 [21]: 1.76 µM and > 10 µM | TGI [21]: 3.81 µM and > 10 µM | GI50 [22]: 2.75 µM and 2.67 µM | TGI [22]: 19.8 µM and > 10 µM | GI50 [23]: 0.721 µM and 1.93 µM | TGI [23]: 4.01 µM and > 10 µM | GI50 [24]: 2.47 µM and 5.7 µM | TGI [24]: 17.7 µM and > 10 µM | GI50 [25]: 1.06 µM and 1.67 µM | TGI [25]: 7.68 µM and > 10 µM | GI50 [26]: 0.153 µM and 0.312 µM | GI50 [27]: 3.05 µM and > 10 µM | TGI [27]: 8.32 µM and > 10 µM | GI50 [28]: 1.16 µM and 2.62 µM | TGI [28]: 11.3 µM and > 10 µM | GI50 [29]: 1.04 µM and > 10 µM | TGI [29]: 12.4 µM and > 10 µM | GI50 [30]: 0.957 µM and 4.29 µM | TGI [30]: 36.2 µM and > 10 µM | GI50 [31]: 1.42 µM | TGI [31]: 8.69 µM | GI50 [32]: 1.94 µM and 7.38 µM | TGI [32]: 5.15 µM and > 10 µM | GI50 [33]: 4.52 µM and > 10 µM | TGI [33]: 25.6 µM and > 10 µM | GI50 [34]: 1.78 µM and 7.25 µM | TGI [34]: 10.5 µM and > 10 µM | GI50 [35]: 0.195 µM and 1.09 µM | TGI [35]: 1.5 µM and 4.67 µM | GI50 [36]: 2.78 µM and 6.68 µM | TGI [36]: 9.49 µM and > 10 µM | GI50 [37]: 1.82 µM and 9.18 µM | TGI [37]: 6.95 µM and > 10 µM | GI50 [38]: 0.272 µM and 2.22 µM | TGI [38]: 4.71 µM and > 10 µM | GI50 [39]: 0.522 µM and 2.07 µM | TGI [39]: 7.37 µM and > 10 µM | GI50 [40]: 0.344 µM and 1.84 µM | TGI [40]: 2.44 µM and > 10 µM | GI50 [41]: 0.468 µM and 2.54 µM | TGI [41]: 12.1 µM and > 10 µM | GI50 [42]: 1.87 µM and 2.52 µM | TGI [42]: 5.4 µM and > 10 µM | GI50 [43]: 0.373 µM | TGI [43]: 3.91 µM | GI50 [44]: 0.324 µM and 0.604 µM | TGI [44]: 1.88 µM and > 10 µM | GI50 [45]: 0.563 µM and 1.18 µM | TGI [45]: 3.43 µM and > 10 µM | GI50 [46]: 0.851 µM and 2.33 µM | TGI [46]: > 24.6 µM | GI50 [47]: 0.306 µM and 1.32 µM | TGI [47]: 6.3 µM and 6.7 µM | GI50 [48]: 7.05 µM and > 10 µM | TGI [48]: 28.3 µM and > 10 µM | GI50 [49]: 1.34 µM and 8.52 µM | TGI [49]: 3.68 µM and > 10 µM | GI50 [50]: 1.37 µM and 3.81 µM | TGI [50]: 3.5 µM and > 10 µM | GI50 [51]: 0.0327 µM and 0.214 µM | TGI [51]: 0.367 µM and 1.62 µM | GI50 [52]: 0.385 µM and 0.963 µM | TGI [52]: 2.13 µM and > 10 µM | GI50 [53]: 0.118 µM and 0.125 µM | TGI [53]: 0.717 µM and 0.681 µM | GI50 [54]: 0.241 µM and 0.287 µM | TGI [54]: 1.79 µM and 2.17 µM | GI50 [55]: 0.375 µM and 0.299 µM | TGI [55]: 3.52 µM and 8.08 µM | GI50 [56]: 1.18 µM and 1.48 µM | TGI [56]: 10.3 µM and > 10 µM | GI50 [57]: 1.76 µM and > 10 µM | TGI [57]: 9.94 µM and > 10 µM | GI50 [58]: 0.0277 µM and 0.0539 µM | TGI [58]: 4.15 µM and 5.52 µM
